Assay results from patent publication US20230321251A1, “LIPOSOME FORMULATION CONTAINING ANTIBACTERIAL AGENT” (priority 2020, published 2023).
≈ marks a conversion by molar mass, not a printed value.

Legend:
E. faecalis SR1004 = assay: In vitro antibacterial activity (MIC), agar plate dilution; type: cell-based; conditions: Enterococcus faecalis, SR1004, read-out: minimum inhibitory concentration (MIC), E. faecalis SR1004, 1000 cfu/spot
Description: (§1) A minimum inhibitory concentration was measured as in vitro antibacterial activity. The minimum inhibitory concentration (MIC: μg/ml) was measured according to the standard method of Japanese Society of Chemotherapy, by an agar plate dilution method using 1000 cfu/spot as an inoculum amount and a susceptibility disk medium as a test medium.
(§2) In the tables, a unit of a numerical value of inhibitory activity is μg/ml. In addition, in the tables, S. aureus represents Staphylococcus aureus and E. faecalis represents Gram-positive group D streptococci (enterococci) that are resident in a normal bacterial flora of a human intestinal tract, and can be causative bacteria of endocarditis and the like after surgery.

E. faecium SRM1101 = assay: as above; type: cell-based; conditions: Enterococcus faecium, SRM1101, read-out: minimum inhibitory concentration (MIC)
Description: as §1, §2

S. aureus SR3637 = assay: as above; type: cell-based; conditions: Staphylococcus aureus, SR3637, read-out: minimum inhibitory concentration (MIC), S. aureus SR3637, 1000 cfu/spot
Description: as §1, §2

E. faecalis SR7914 = assay: as above; type: cell-based; conditions: Enterococcus faecalis, SR7914, read-out: minimum inhibitory concentration (MIC), E. faecalis SR7914, 1000 cfu/spot
Description: as §1, §2

E. faecium SR7940 = assay: as above; type: cell-based; conditions: Enterococcus faecium, SR7940, read-out: minimum inhibitory concentration (MIC), E. faecium SR7940, 1000 cfu/spot
Description: as §1, §2

[1] = In vitro cytotoxicity test (resazurin); type: cell-based; conditions: African green monkey, Vero cells, 72 hours culture
Description: Vero cells (final concentration: 2.0×10 to the power of 4 cells/well) cultured in advance and each test substance were added to 96 wells, and cultured for 72 hours under conditions of 5% CO2 and 37° C. Thereafter, 10 μl/well of a 0.01% resazurin solution was added, and after mixing, the cells were cultured under conditions of 5% CO2 and 37° C. for 4 hours, and then a fluorescence value (Ex 531 nm/Em 590 nm) was measured using a microplate reader.

[2] = tested on: 2% red blood cell suspension (defibrated sheep blood); assay: In vitro hemolysis test; type: cell-based; conditions: sheep red blood cells, 24 hours incubation
Description: Hemolysis rates of the compound A drug substance and the liposome formulation of Example 2 were evaluated by the following methods.
A 10 mM concentration solution of each test substance was prepared using a 5% sugar solution as a solvent, and 12 types of formulation solutions were prepared for each test substance up to 0.0049 mM by 2-fold serial dilution. Using 20% FBS-supplemented M-199 medium (With Earle's salts, sodium bicarbonate and 25 mM HEPES, supplement with 0.1 g/L L-glutamine) as a medium, a 2% red blood cell suspension (defibrated sheep blood) was prepared and mixed with a solvent or each test substance formulation solution (n=2). […] A mixed solution of the solvent or each test substance formulation solution and the red blood cell suspension or the medium was incubated for 24 hours, then the supernatant was collected, and an absorbance at 540 nm was measured. At the stage of completion of each incubation, an absorbance of the solvent and the red blood cell suspension, and an absorbance of the solvent and the medium were set to a reference of “hemolysis rate 0%”, and an absorbance of the 100% hemolysis solution was set to a reference of “100% hemolysis”, and a hemolysis rate by mixing and incubating each test substance formulation solution and the red blood cell suspension was calculated by the following calculation formula. […]

S. aureus ATCC25923 = assay: In vitro antibacterial activity (MIC), agar plate dilution; type: cell-based, Staphylococcus aureus; conditions: Staphylococcus aureus, ATCC25923, read-out: minimum inhibitory concentration (MIC), S. aureus ATCC25923, 1000 cfu/spot
Description: as §1, §2

S. aureus VRS1 = assay: as above; type: cell-based, Staphylococcus aureus; conditions: Staphylococcus aureus, VRS1, read-out: minimum inhibitory concentration (MIC), S. aureus VRS1, 1000 cfu/spot
Description: as §1, §2

S. aureus ATCC700787 = assay: as above; type: cell-based, Staphylococcus aureus; conditions: Staphylococcus aureus, ATCC700787, read-out: minimum inhibitory concentration (MIC)
Description: as §1, §2

SMILES: CN[C@H](CC(C)C)C(=O)NC1C(=O)N[C@@H](CC(N)=O)C(=O)N[C@H]2C(=O)N[C@H]3C(=O)N[C@H](C(=O)N[C@@H](C(=O)O)c4cc(O)cc(O)c4-c4cc3ccc4O)[C@H](O[C@H]3C[C@](C)(N)[C@@H](O)[C@H](C)O3)c3ccc(c(Cl)c3)Oc3cc2cc(c3O[C@@H]2O[C@H](CO)[C@@H](O[C@@H]3O[C@H](CNCc4ccc(-c5ccc(Cl)cc5)s4)[C@H](O)[C@H](O)[C@H]3O)[C@H](O)[C@H]2O)Oc2ccc(cc2Cl)[C@H]1O (stereo partly shown) [Compound A drug substance]
- MIC (E. faecalis SR1004): 0.5 µg/mL (≈ 0.275 µM)
- MIC (E. faecium SRM1101): 2 µg/mL (≈ 1.1 µM)
- MIC (S. aureus SR3637): 1 µg/mL (≈ 0.55 µM)
- MIC (E. faecalis SR7914): 2 µg/mL (≈ 1.1 µM)
- MIC (E. faecium SR7940): 2 µg/mL (≈ 1.1 µM)
- CC50 at 72 h [1]: 128 µg/mL (≈ 70.4 µM)
- Hemolysis rate [2]: 34%
- MIC (S. aureus ATCC25923): 1 µg/mL (≈ 0.55 µM)
- MIC (S. aureus VRS1): 4 µg/mL (≈ 2.2 µM)
- MIC (S. aureus ATCC700787): 2 µg/mL (≈ 1.1 µM)
